In patent publication US4067899A, “Terpenophenols” (Societe Anonyme dite: MAR-PHA, Societe d'Etude et …, priority 1974, dated 1978) one finds MIC data, which are given here for 16 compounds.

≈ marks a conversion by molar mass, not a printed value.

Experiment in all cases: Bacteriostatic activity by the method of streaks in gelose media, minimum inhibitory concentration
What all share (assay type): cell-based

The test system of experiment [1] is Staphylococcus Aureus. The settings on record: streaks from 24 hour old culture, gram + ve, read-out: Minimal inhibitory concentration Staphylococcus Aureus. The protocol: (§1) The bacteriostatic activity of the phenols according to the invention has been evaluated by the method of streaks in gelose media. This method comprises making increasing dilutions of the product to be tested, in nutritive geloses poured into a Petri dish.
(§2) The various bacteria to be studied are then introduced onto the geloses in parallel streaks by means of a platinum loop which has been immersed in a 24 hour old culture of each bacteria.
(§3) The activity of these compounds has been studied vis a vis two gram + ve bacteria, namely Staphylococcus Aureus and Streptococcus Pyrogenes.

The test system of experiment [2] is Escherichia Coli. To be noted: streaks from 24 hour old culture, read-out: Minimal inhibitory concentration Escherichia Coli. The method, then:
as §1, §2

Experiment [3] has as its system Streptococcus Pyrogenes. To be noted: streaks from 24 hour old culture, gram + ve, read-out: Minimal inhibitory concentration Streptococcus Pyrogenes. The method, then: as §1, §2, §3

As to `Oc1ccc(Cl)cc1C1CC2CCC1C2` (stereo not drawn) [Example 10, 2-exo-norbornyl-4-chlorophenol], the figures for the MIC in experiment [1] and in experiment [2] were 5 µg/mL and 10 µg/mL (≈ 44.9 µM), respectively.
As for `CC1(C)C2CCC1(C)C(c1cc(Br)ccc1O)C2` (centres unmarked) [Example 4, 2-isobornyl-4-bromophenol], the MIC stood at 30 µg/mL in experiment [3] and 2 µg/mL in experiment [1].
Taken in the same sequence, the figures for `CC1C2CC(CC2c2cc(Br)ccc2O)C1(C)C` (centres unmarked) [Example 6, 2-isocamphyl-4-bromophenol] were 5 µg/mL and 2.5 µg/mL.
Consider `Oc1ccc(Br)cc1C1CC2CCC1C2` (stereo not drawn) [Example 8, 2-exo-norbornyl-4-bromophenol], for which the MIC in experiment [3] was found to be 20 µg/mL; in experiment [1] it was 7.5 µg/mL; in experiment [2], 7.5 µg/mL (≈ 28.1 µM).
Regarding `Cc1cc(O)c(C2CC3CCC2C3)cc1Br` (stereo not drawn) [Example 9, 2-exo-norbornyl-4-bromo-5-methylphenol], the MIC worked out at 5 µg/mL in experiment [1] and 20 µg/mL (≈ 71.1 µM) in experiment [2].
On to `Cc1cc(O)c(C2CC3CCC2(C)C3(C)C)cc1C#N` (centres unmarked) [Example 15, 2-isobornyl-4-cyano-5-methylphenol], for which the MIC in experiment [3] came out at 10 µg/mL; in experiment [1] it was 5 µg/mL.
Taken in the same sequence, the figures for `CC1(C)C2CCC1(C)C(c1cc(Cl)ccc1O)C2` (centres unmarked) [Example 11, 2-isobornyl-4-chlorophenol] were 10 µg/mL and 2.5 µg/mL.
Taken in the same sequence, the figures for `O=[N+]([O-])c1ccc(O)c(C2CC3CCC2C3)c1` (stereo not drawn) [Example 5, 2-exo-norbornyl-4-nitrophenol] were 10 µg/mL and 5 µg/mL.
Turning to `COc1cc(C)c(O)cc1C1CC2CCC1(C)C2(C)C` (centres unmarked) [Example 12, 2-methyl-4-methoxy-5-isobornyl phenol], the MIC in experiment [1] was found to be 5 µg/mL.
`Cc1ccc(O)c(C2CC3CC2C(C)C3(C)C)c1` (centres unmarked) [Example 13, 2-isocamphyl-4-methylphenol]: the MIC in experiment [3] is 20 µg/mL; in experiment [1] it was 5 µg/mL.
The like results for `Cc1cc(O)c(C2CC3CCC2(C)C3(C)C)cc1Br` (centres unmarked) [Example 2, 2-isobornyl-4-bromo-5-methyl-phenol] were, in that order, 15 µg/mL and 5 µg/mL.
Taken in the same sequence, the figures for `Cc1cc(O)c(C2CC3CCC2(C)C3(C)C)cc1Cl` (centres unmarked) [Example 7, 2-isobornyl-4-chloro-5-methylphenol] were 5 µg/mL and 2.5 µg/mL.
For `COc1ccc(O)cc1C1CC2CCC1(C)C2(C)C` (centres unmarked) [Example 14, 3-isobornyl-4-methoxyphenol], the MIC in experiment [3] stood at 10 µg/mL; in experiment [1], 5 µg/mL.
Taken in the same sequence, the figures for `Cc1cc(O)c(C2CC3CCC2(C)C3(C)C)cc1[N+](=O)[O-]` (centres unmarked) [Example 1, 2-isobornyl-4-nitro-5-methylphenol] were 7.5 µg/mL and 1 µg/mL.
Consider `CC1(C)C2CCC1(C)C(c1cc([N+](=O)[O-])ccc1O)C2` (centres unmarked) [Example 3, 2-isobornyl-4-nitrophenol], for which the MIC in experiment [3] worked out at 5 µg/mL; in experiment [1], 1 µg/mL.
Taken in the same sequence, the figures for `CC1(C)C2CCC1(C)C(c1cc(C#N)ccc1O)C2` (centres unmarked) [Example 16, 2-isobornyl-4-cyano phenol] were 7.5 µg/mL and 5 µg/mL.
